Results reported in patent US20230255934A1, “NURR1 RECEPTOR MODULATORS AND USES THEREOF” (The Regents of the University of California, priority 2020, published 2023).
Residue numbers refer to the chain shown, from its start. Where two headings read alike, the source gives them in different places.

Experiments:
Nurr1 LBD (wildtype) = biological target: T1, Nurr1 LBD (wildtype) (Homo sapiens, UniProt P43354); assay: Microscale thermophoresis (MST) binding to wildtype Nurr1 LBD; conditions: for Binding to the Nurr1 LBD (in words): MST; for Amplitude: Table 1, MST amplitude, WT; for Response Amplitude: Table 2, MST, Wildtype
T1 construct: made in house
T1 sequence (P43354 with tags, fused parts or gaps): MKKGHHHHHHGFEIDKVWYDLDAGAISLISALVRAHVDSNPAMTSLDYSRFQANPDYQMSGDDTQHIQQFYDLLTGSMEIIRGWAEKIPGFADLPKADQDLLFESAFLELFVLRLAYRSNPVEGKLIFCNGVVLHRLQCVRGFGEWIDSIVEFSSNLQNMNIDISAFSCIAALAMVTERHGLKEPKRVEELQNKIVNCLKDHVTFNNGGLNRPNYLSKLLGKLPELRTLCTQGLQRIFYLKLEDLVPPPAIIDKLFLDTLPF
Description: (§1) Concentration-dependent association of the indoles with the Nurr1 LBD was carried out using microscale thermophoresis. Stock solutions (10 mM in DMSO) of each indole were serially diluted (200 μM indole, 0.5× dilutions down to 0.0061 μM) in MST buffer (25 mM HEPES, pH 7.4, 150 mM NaCl, and 0.1% Pluronic F127) containing 2% DMSO. The dilutions were carried out with 4% DMSO in the MST buffer for a total of 16 concentrations. Equivalent volumes and concentrations of the fluorescently labeled Nurr1 LBD in MST buffer were added to each ligand dilution in the series to reach a final concentration of 75 nM labeled protein. After incubating for 20 minutes, the samples were loaded into Monolith NT.115 Capillaries (Nanotemper).
(§2) Data were collected using the Monolith NT.115 System (Nanotemper), with settings for all samples at 40% excitation power and 40% MST power. The initial fluorescence was recorded for 3 sec and the thermophoresis fluorescence response was recorded for 20 sec. The data was inspected with Palmist software^5, and data points affected by initial fluorescence quenching or photobleaching were eliminated. The fluorescent response for each sample was normalized to the initial fluorescence using Palmist software to provide the values of thermophoresis (Fn). The resulting data was used to generate a plot of the change in thermophoresis (Fn-Fn0, where Fn=thermophoresis and Fn0=thermophoresis response in unbound range) versus concentration of the ligand. GraphPad Prism v. 8.3.0 software was used to fit the resulting data to a mass action equation for a specific binding with Hill slope, solving for KD: Fn-Fn0═Fmax·[L]^n/(KD^n+[L]^n), where Fmax=maximum amplitude of thermophoresis, [L]=concentration of the ligand at a specific point, KD=dissociation constant, nH=Hill Coefficient.
To investigate the potential impact of compound nano-aggregation on binding affinity, we used dynamic light scattering to inspect the aggregation of 5-chlorindole in solution and repeated the MST binding experiments in the presence of increasing concentrations of the surfactant Pluoronic F127 (FIGS. 12A-12D). […] As well, increasing concentrations of the surfactant Pluronic F127 had small effects (<2-fold) on the affinity of 5-chloroindole for the Nurr1 LBD (FIGS. 12A-12D).

Nurr1 LBD His516Ala = biological target: T2, Nurr1 LBD His516Ala (Homo sapiens, UniProt P43354, H516A); assay: MST binding to His516Ala mutant Nurr1 LBD; conditions: for Amplitude (% change) / KD (% change): Table 1, H516 relative to WT; for Amplitude: Table 1, MST amplitude, H516; for Response Amplitude: Table 2, MST, His516Ala
T2 construct: Mutants of LAP2 Nurr1 were prepared by GenScript starting from LAP2 Nurr1 vector; made in house
T2 sequence (P43354 with tags, fused parts or gaps H516A): as the sequence (P43354 with tags, fused parts or gaps) above, with H180A counted along it
Description: (§3) The plasmid used for the expression of LAP2-tagged Nurr1 LBDs (LAP2 Nurr1) was prepared by GenScript (Piscataway, N.J.) as the product of gene synthesis and subcloning into pET-21a(+) Vector (GenScript) using the Ndel and Xhol sites within the MCS. Mutants of LAP2 Nurr1 were prepared by GenScript starting from LAP2 Nurr1 vector.
as §1, §2

Nurr1 LBD Arg563Ala = biological target: T3, Nurr1 LBD Arg563Ala (Homo sapiens, UniProt P43354, R563A); assay: MST binding to Arg563Ala mutant Nurr1 LBD; conditions: for Amplitude: Table 1, MST amplitude, R563A; for Amplitude (% change) / KD (% change): Table 1, R563A relative to WT; for Response Amplitude: Table 2, MST, Arg563Ala
T3 construct: Mutants of LAP2 Nurr1 were prepared by GenScript starting from LAP2 Nurr1 vector; made in house
T3 sequence (P43354 with tags, fused parts or gaps R563A): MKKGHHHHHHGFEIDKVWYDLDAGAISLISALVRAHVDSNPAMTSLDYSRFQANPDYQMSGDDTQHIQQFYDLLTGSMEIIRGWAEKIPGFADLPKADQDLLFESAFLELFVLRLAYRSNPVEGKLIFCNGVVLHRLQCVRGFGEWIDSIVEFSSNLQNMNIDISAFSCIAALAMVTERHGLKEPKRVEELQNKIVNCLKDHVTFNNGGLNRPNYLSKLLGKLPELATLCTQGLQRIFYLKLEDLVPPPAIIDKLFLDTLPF
Description: as §3, §1, §2

[1] = biological target: T4, Nurr1 LBD Arg563Ala + His516Ala (Homo sapiens, UniProt P43354, H516A/R563A); assay: MST binding to Arg563Ala + His516Ala double mutant Nurr1 LBD; conditions: for Amplitude (% change) / KD (% change): Table 1, H516A/R563A relative to WT; for Amplitude: Table 1, MST amplitude, H516A/R563A; for Response Amplitude: Table 2, MST, Arg563Ala + His516Ala
T4 construct: Mutants of LAP2 Nurr1 were prepared by GenScript starting from LAP2 Nurr1 vector; made in house
T4 sequence (P43354 with tags, fused parts or gaps H516A/R563A): T3 sequence (P43354 with tags, fused parts or gaps R563A) with H180A
Description: as §3, §1, §2

[2] = tested on: Nurr1 target genes Th and Vmat2 in MN9D cells; assay: Target gene transcription assay (qPCR) in MN9D cells; type: cell-based, mouse
Description: Target Gene Transcription Assays. These assays were carried out using standard protocols. MN9D TET-ON frozen cell stocks (P5) were thawed and grown for 60-72 h on poly-D-lysine pre-treated culture dishes (100 mm) in Dulbecco's Modified Eagle Medium/Nutrient Mixture F-12 (DMEM/F-12; Gibco) supplemented with 5% Tet System Approved FBS (Takara Bio USA) at 37° C., 5% C02 to ˜80% confluency. The resulting cells were then trypsinized with 0.25% Trypsin-EDTA (Gibko) and diluted to 2·10^5 cells/ml with fresh medium. The resulting cell suspension (0.8 mL) was added to 2× concentrated compound in the same medium containing 0.2% DMSO (0.8 mL) in an Eppendorf tube. The cell suspension with compound or vehicle (DMSO) was then seeded onto a 24-well plate pre-treated with Poly-D-Lysine at 0.8 mL per well. Assays were performed under conditions of basal Nurr1 expression, without induction of additional Nurr1 expression using doxycycline.
After 24 h, total RNA was extracted the cells in each well using the Quick-RNA MiniPrep Plus Kit (Zymo Research), according to the manufacturer's instructions. The cDNA was then synthesized from 1000 ng of purified RNA using High-Capacity cDNA Reverse Transcription Kit (Applied Biosystems) and used as template. The qPCR as performed using iTaq Universal SYBR Green Supermix (BioRad) and CFX96 Real-Time Detection System machine (BioRad). Briefly, qPCR was performed in hard-shell 96-well PCR plates (BioRad) using cDNA corresponding to 8.75 ng of starting total RNA in a volume of 15 μl, containing 7.5 μl of SYBR Green Supermix, and 1 μL of 10 μM forward and reverse primers. Cycling parameters for qPCR included an initial denaturation at 95° C. for 3 min, followed by 40 cycles of 95° C. for 5 s and annealing at 56° C. for 30 s. The forward and reverse primers (Table 4) were ordered from IDT. Gene expression was quantified by the comparative2-ΔΔCt method, with the mouse housekeeping gene hypoxanthine-guanine phosphoribosyltransferase (Hprt) used as internal reference to determine the relative mRNA expression. Transcript levels for target genes were normalized to the housekeeping gene Hprt and fold change was compared to gene expression levels from vehicle (DMSO) only treated cells. GraphPad Prism 8 software was used for statistical analysis. Two-way ANOVA was applied for DMSO fold change vs compound. Results are from three independent experiments. Relative average expression±SD; *p<0.05, **p<0.01, ***p<0.001, ****p<0.0001 by ANOVA in comparison expression with 0 μM compound (DMSO only).

MN9D cells = assay: CytoTox-Glo cytotoxicity assay; type: cell-based; conditions: 24 h treatment, 10 μM unless stated
Description: Cytotoxicity assays were carried out using the CytoTox-Glo Cytotoxicity Assay Kit (Promega) according to the manufacturer's instructions. Briefly, MN9D cells were resuspended in DMEM/F-12 with 5% FBS at 2·10^5 cells/ml and added to an equal volume of two-fold concentrated compound in the same media containing 0.2% DMSO (prepared by diluting DMSO stock of the compound in warm DMEM/F-12 with 5% FBS; for DMSO control equivalent volume of DMSO was used instead of the compound stock), and immediately re-plated onto poly-D-lysine pre-treated 96-well white-walled flat clear bottom plate (Corning cat #3903) at a density of 1·10^4 cells/well (100 μL/well), 3 replicas per compound. As a background (BG) control, for each of the compound (or DMSO) equivalent volume of compound mixed with DMEM/F-12+5% FBS was plated. After 24 h treatment at 37° C., in 5% C02 incubator, 50 μL of CytoTox-Glo™ Cytotoxicity Assay Reagent was added to each well, mixed briefly by orbital shaking and incubated for 15 min at ambient temperature. Luminescence signal corresponding to dead cells was measured using Biotek Synergy H4 hybrid microplate reader. After the measurement, 50 μL of Lysis Reagent was added to each well, mixed, incubated for 15 min at ambient temperature, and total luminescence was measured. The percentage of viable cells was then calculated as follows: Percent Viable Cells (%)=100% (Total cell luminescence (test compound)—Dead cell luminescence (test compound))/(Total cell luminescence (DMSO)—Dead cell luminescence (DMSO)).

[3] = Chemical stability in solution; type: physicochemical; conditions: observed during data acquisition
[4] = Table 1, Nurr1 variant WT, read-out: KD
[5] = Table 2, Wildtype, read-out: Affinity (KD)
[6] = Table 1, Nurr1 variant H516, read-out: KD
[7] = Table 2, His516Ala, read-out: Affinity (KD)
[8] = Table 1, Nurr1 variant R563A, read-out: KD
[9] = Table 2, Arg563Ala, read-out: Affinity (KD)
[10] = Table 1, Nurr1 variant H516A/R563A, read-out: KD
[11] = Table 2, Arg563Ala + His516Ala, read-out: Affinity (KD)

Structure (SMILES) | Binding to the Nurr1 LBD (in words) (Nurr1 LBD (wildtype)) | Amplitude (Nurr1 LBD (wildtype)) | Kd (Nurr1 LBD (wildtype); [4]) [µM] | Response Amplitude (Nurr1 LBD (wildtype)) | Kd (Nurr1 LBD (wildtype); [5]) [µM] | Amplitude (% change) (Nurr1 LBD His516Ala) | KD (% change) (Nurr1 LBD His516Ala) | Amplitude (Nurr1 LBD His516Ala) | Kd (Nurr1 LBD His516Ala; [6]) [µM] | Kd (Nurr1 LBD His516Ala; [7]) [µM] | Response Amplitude (Nurr1 LBD His516Ala) | Amplitude (Nurr1 LBD Arg563Ala) | Kd (Nurr1 LBD Arg563Ala; [8]) [µM] | Amplitude (% change) (Nurr1 LBD Arg563Ala) | KD (% change) (Nurr1 LBD Arg563Ala) | Kd (Nurr1 LBD Arg563Ala; [9]) [µM] | Response Amplitude (Nurr1 LBD Arg563Ala) | Amplitude (% change) [1] | Cytotoxicity / cell viability (MN9D cells) | Chemical instability in solution [3] | further results
Brc1cc2cc[nH]c2cc1Br [5,6-dibromoindole] | saturable binding | 31 + 1 | 2.2 | 31 + 1 | 2.2 | +13% | +186% | 35 + 2 | 6.3 | 6.4 | 35 + 2 (ns) | 32 + 3 | 11 | +3% | +400% | 11 | 32 + 3 (ns) | +39% |  |  | KD (% change) [1]: +627%; Amplitude [1]: 43 + 5; Kd [1, 10]: 16 µM; Kd [1, 11]: 15.6 µM; Response Amplitude [1]: 43 + 5 (ns); Effect on expression of Nurr1 target genes Th and Vmat2 (in words) [2]: does not
Clc1cc2cc[nH]c2cc1Cl [5,6-dichloroindole] | saturable binding | 54 + 4 | 4.5 | 54 + 4 | 4.5 | +19% | +166% | 67 + 9 | 12 | 12 | 67 + 9 (ns) | 47 + 3 | 13 | −13% | +189% | 13.1 | 47 + 3 (ns) | 0% |  |  | KD (% change) [1]: +304%; Amplitude [1]: 54 + 5; Kd [1, 10]: 18 µM; Kd [1, 11]: 17.9 µM; Response Amplitude [1]: 54 + 5 (ns); Effect on expression of Nurr1 target genes Th and Vmat2 (in words) [2]: does not
Nc1ccc2[nH]ccc2c1 [5-aminoindole] |  |  |  |  |  |  |  |  |  |  |  |  |  |  |  |  |  |  | significant cytotoxicity | autooxidation and polymerization in solution | 
Oc1ccc2[nH]ccc2c1 [5-hydroxyindole] |  |  |  |  |  |  |  |  |  |  |  |  |  |  |  |  |  |  | significant cytotoxicity | autooxidation and polymerization in solution | 
Nc1ccc2cc[nH]c2c1 [6-aminoindole] |  |  |  |  |  |  |  |  |  |  |  |  |  |  |  |  |  |  | significant cytotoxicity | autooxidation and polymerization in solution | 
Oc1ccc2cc[nH]c2c1 [6-hydroxyindole] |  |  |  |  |  |  |  |  |  |  |  |  |  |  |  |  |  |  | significant cytotoxicity | autooxidation and polymerization in solution | 
